Test results from US11827704B2, “Antibody molecules to PD-1 and uses thereof” (Novartis AG, priority 2014, dated 2023).
Where two headings read alike, the source gives them in different places.

How the values were obtained:
[1] = tested on: PD-L1 (CD274) surface expression in EBC-1 cells; assay: Flow cytometry of PD-L1 surface expression in EBC-1 cells in vitro; assay type: cell-based, human; conditions: EBC-1 cells (NSCLC with cMET amplification); 10 nM, 100 nM, 1000 nM for 24, 48 and 72 hours; FIG. 15
Experimental: PD-L1 (CD274) expression was analyzed in cancer cell lines treated with Compound A17. Cells were obtained from ATCC and cultured in vitro following ATCC directions. The cell lines used were previously characterized by the Cancer Cell Line Encyclopedia Project (broadinstitute.org/ccle/home).
Cells plated in six-well culture plates were treated with the Compound A17 at different concentrations (10 nM, 100 nM, and 1000 nM) for 24, 48 and 72 hours. Equal amount of vehicle (DMSO) was used as a control. Cells were washed with PBS and then harvested using a cell scraper.
For each reaction, 0.5-1×10^6 cells were stained with 20 μL of anti-human monoclonal PD-L1-PE antibody, clone M1H1 (BD) for 30-60 minutes at 4° C. Cells were washed twice and data was acquired using a Canto II with FACSDiva software (BD Bioscience). Data analysis was performed using FlowJo software (Tree Star). Mean fluorescence intensity (MFI) was determined by gating on single cells. Unstained cells were used as a gating control.

[2] = tested on: PD-L1 (CD274) mRNA in Hs.746.T tumor; assay: TaqMan RT PCR of PD-L1 mRNA in Hs.746.T tumor xenograft; assay type: in vivo, human; conditions: Hs.746.T tumor (gastric cancer cell with cMET amplification & mutation) xenograft; FIG. 16
[3] = tested on: PD-L1 (CD274) mRNA in UKE-1 tumors; assay: TaqMan RT PCR of PD-L1 mRNA in UKE-1 tumor xenograft model; assay type: in vivo, human; conditions: tumor xenograft model bearing UKE-1 (MPN line with JAK2V617F mutation); FIG. 20
[4] = tested on: PD-L1 (CD274) mRNA in H3122 cells; assay: TaqMan RT PCR of PD-L1 mRNA in H3122 cells in vitro; assay type: cell-based, human; conditions: H3122 (NSCLC with ALK translocation) in vitro; FIG. 17
Experimental: (§1) TaqMan RT PCR assays were developed to detect changes of expression levels of PD-L1 (CD274) in cell lines and xenograft tumors. mRNA was isolated from frozen cell pellets or tumor fragments using the Qiagen RNeasy Mini kit. Isolated RNA was frozen at −80° C. RNA quality was checked and RNA was quantified using a 2100 Agilent Bioanalyzer following the protocol for the Agilent RNA 6000 Nano Kit. cDNA was prepared using a High Capacity RNA- to cDNA Kit (Applied Biosystems).
(§2) Real-time PCR reactions were carried out in 20 μl total volume, including 10 μl of Universal PCR master mix (Applied Biosystems), 1 μl of human PD-L1 (CD274) probe/primer set (Applied Biosystems), and 8 μl of cDNA. Each sample was run in triplicate. The amount of cDNA produced from 25-50 ng of RNA in the reverse transcription reaction was used in each PCR reaction. Due to difference in mRNA levels between PD-L1 and GAPDH, the two real-time PCR reactions were done in separate tubes using same amount of cDNA. The real-time PCR reaction was run on the C1000 Thermal Cycle (BioRad) with the cycle program as follows: a 10 minute incubation at 95° C. followed by 40 cycles of 95° C. for 15 seconds and 60° C. for 1 minute. After the reaction was complete, the PD-L1 average Ct was normalized relative to each Ct value from the GAPDH reference reaction. Each normalized logarithmic value was then converted into a linear value.

[5] = tested on: PD-L1 (CD274) mRNA in LOXIMV1 tumors; assay: TaqMan RT PCR of PD-L1 mRNA in LOXIMV1 tumor xenograft model; assay type: in vivo, human; conditions: tumor xenograft model bearing LOXIMV1 (BRAF mutant melanoma); FIG. 18
Experimental: as §1, §2

[6] = tested on: PD-L1 (CD274) mRNA in HEYA8 tumors; assay: TaqMan RT PCR of PD-L1 mRNA in HEYA8 tumor xenograft model; assay type: in vivo, human; conditions: tumor xenograft model bearing HEYA8 (KRAS mutant ovarian cancer); FIG. 19
Experimental: as §1, §2

IFN-γ expression = assay type: cell-based
CD8^+ T cells = assay: Proliferation of CD8+ T cells activated with CMV peptides; assay type: cell-based; conditions: percentages of CD8+ cells that passed through at least n cell divisions (n=2, 4, 6)

Molecule: CNC(=O)c1ccc(-c2cnc3ncc(Cc4ccc5ncccc5c4)n3n2)cc1F [Compound A17, 2-fluoro-N-methyl-4-(7-(quinolin-6-ylmethyl)imidazo[1,2-b][1,2,4]triazin-2-yl)benzamide]
- surface expression of PD-L1 (flow cytometry) [1]: significant downregulation
- PD-L1 expression (mRNA) [2]: Inhibition

Molecule: N#CC[C@H](C1CCCC1)n1cc(-c2ncnc3[nH]ccc23)cn1 [Compound A18, Ruxolitinib Phosphate]
- PD-L1 mRNA [3]: Downregulation

Molecule: Cc1cc(Nc2ncc(Cl)c(Nc3ccccc3S(=O)(=O)C(C)C)n2)c(OC(C)C)cc1C1CCNCC1 [Compound A23, ceritinib]
- PD-L1 mRNA [4]: Inhibition

Molecule: COC(=O)N[C@@H](C)CNc1nccc(-c2cn(C(C)C)nc2-c2cc(Cl)cc(NS(C)(=O)=O)c2F)n1 [Compound A29, Encorafenib]
- PD-L1 mRNA [5]: Downregulation

Molecule: Cn1cnc2c(F)c(Nc3ccc(Br)cc3F)c(C(=O)NOCCO)cc21 [Compound A34, Binimetinib]
- PD-L1 mRNA [6]: Downregulation

B1: BAP049: murine anti-PD-1 monoclonal antibody; sequences in Table 1 (antibody, V domains shown)
VH: QVQLQQSGSELVRPGASVKLSCKASGYTFTTYWMHWVRQRPGQGLEWIGNIYPGTGGSNFDEKFKNRTSLTVDTSSTTAYMHLASLTSEDSAVYYCTRWTTGTGAYWGQGTLVTVSA
VL: DIVMTQSPSSLTVTAGEKVTMSCKSSQSLLDSGNQKNFLTWYQQKPGQPPKLLIFWASTRESGVPDRFTGSGSVTDFTLTISSVQAEDLAVYYCQNDYSYPCTFGGGTKLEIK
- fold increase in IFN-γ expression (IFN-γ expression): 2.8±0.8 fold
- fold increase in IFN-γ expression (IFN-γ expression; cells stimulated with Staphylococcal enterotoxin B (SEB) (3 μg/mL)): 2.5±2.0 fold
- proliferation of CD8+ T cells activated with CMV peptides (CD8^+ T cells): increase proliferation
